Experimental data published in patent US11672868B2, “Bicyclic peptide ligands specific for MT1-MMP” (priority 2014, dated 2023).
Where two headings read alike, the source gives them in different places. Marks after values point to notes of the source that are not given here. Numbered stars: 1 amine (or outer) side, 2 acyl side, 3 side chain; on linkers, the order of the positions; unused ones are H or OH. Bridge positions count the residues as written; N and C are the ends. Square brackets hold non-standard residues; d marks the D form. Peptide text beside a SMILES is read from it. * marks the point of attachment. X1 = COc1cc2cc(c1Cl)N(C)C(=O)C[C@H](OC(=O)[C@H](C)N(C)C(=O)CCC(C)(C)SSCCCC(=O)*)[C@]1(C)O[C@H]1[C@H](C)[C@@H]1C[C@@](O)(NC(=O)O1)[C@H](OC)/C=C/C=C(\C)C2; X2 = COc1cc2cc(c1Cl)N(C)C(=O)C[C@H](OC(=O)[C@H](C)N(C)C(=O)CCC(C)SSC(C)CCC(=O)*)[C@]1(C)O[C@H]1[C@H](C)[C@@H]1C[C@@](O)(NC(=O)O1)[C@H](OC)/C=C/C=C(\C)C2; 1Nal = N[C@@H](Cc1cccc2ccccc12)C(=O)O; TBMB = c1c(C[*:1])cc(C[*:3])cc1C[*:2]; Tle = CC(C)(C)[C@H](N)C(=O)O; βAla = NCCC(=O)O; Sar = CNCC(=O)O

How the values were obtained:
[1] = Plasma stability, quantitative LC-MS (Method #2); assay type: in vitro ADME, mouse; conditions: for half-life at 4 μM: mouse, quantitative LC-MS, incubation up to 24 hrs, 4 μM BDC, read-out: t1/2 (hrs) (mouse plasma) (converted)
Method: (§1) To obtain plasma stability of bicyclic peptides quantitatively, peptide stock solutions (200 μM in DMSO) were mixed with plasma (human or mouse), such that final concentrations were 10 μM. 40 μL samples were taken periodically up to 8 hrs and frozen at −80° C. Prior to LC-MS analysis, samples were defrosted, and mixed with 3 volumes (here, 120 μL) of 1:1 acetonitrile/MeOH water. The milky suspensions were centrifuged for 30 min at 13000 rpm, and peptide-containing supernatants were quantitated for doubly/triply charged species and MS/MS fragments thereof using a Waters Xevo TQ-D instrument, while using a plasma extracted standard curve of the same peptides as a reference. The half-life of degradation in plasma was used to assess the comparative stability of the molecules.

MT1-MMP hemopexin domain [2] = assay: FP competition, species cross-reactivity (dog); assay type: binding; conditions: Table 13
Text: (§2) Here, a pre-formed complex of PEX with the fluorescent PEX-binding tracer is titrated with free, non-fluoresceinated bicyclic peptide. Since all 17-69-based peptides are expected to bind at the same site, the titrant will displace the fluorescent tracer from PEX. Dissociation of the complex can be measured quantitatively, and the Kd of the competitor (titrant) to the target protein determined. The advantage of the competition method is that the affinities of non-fluoresceinated bicyclic peptides can be determined accurately and rapidly.
(§3) Subsequently, the non-fluorescent competitor bicyclic peptide (usually just the bicycle core sequence) is titrated, such that it displaces the fluorescent tracer from the target protein. The displacement of the tracer is measured and associated with a drop in fluorescence polarisation. The drop in fluorescence polarisation is proportional to the fraction of target protein bound with the non-fluorescent titrant, and thus is a measure of the affinity of titrant to target protein.
(§4) The raw data is fit to the analytical solution of the cubic equation that describes the equilibria between fluorescent tracer, titrant, and binding protein. The fit requires the value of the affinity of fluorescent tracer to the target protein, which can be determined separately by direct binding FP experiments (see previous section). […]

[3] = Plasma stability, quantitative LC-MS (Method #2); assay type: in vitro ADME, human; conditions: for half-life at 4 μM: read-out: t1/2 (hrs) (human plasma) (converted)
Method: as §1, with “[…] […]” for “To obtain plasma stability of bicyclic peptides quantitatively, peptide stock solutions (200 μM in DMSO) were mixed with plasma (human or mouse), such that final concentrations were 10 μM. 40 μL samples were taken periodically up to 8 hrs and frozen at −80° C.”

MT1-MMP hemopexin domain [4] = molecular target: T1, MT1-MMP hemopexin domain (Mus musculus, UniProt P53690); assay: FP competition, species cross-reactivity (mouse); assay type: binding; conditions: Table 13
T1 construct: MT1-MMP hemopexin domain derived from other species
Text: as §2, §3, §4

[5] = Plasma stability, quantitative LC-MS; assay type: in vitro ADME; conditions: rat, incubation up to 24 hrs, 4 μM BDC, read-out: t1/2 (hrs) (rat plasma) (converted)
Method: (§5) The four BDCs were assessed for several in vitro parameters such as retention of potency to the human MT1-MMP hemopexin domain, stability in ex vivo mouse, rat and human plasma, and stability to reducing agents such as dithiothreitol.

[6] = system: human lung squamous cell carcinoma line EBC-1; assay: Efficacy in EBC-1 xenograft mice; assay type: in vivo, mouse; conditions: for efficacy in EBC-1 xenograft / tolerability / body weight: EBC-1 xenograft; for ED50, effective dose to achieve 50% tumour AUC reduction: mouse bearing EBC-1 tumours, ± 95% confidence limit
Method: In vivo efficacy of BT17BDC-17, BT17BDC-18, BT17BDC-19 and BT17BDC-20 All BDCs containing the stabilised bicycle core sequence were tested for their efficacies in in vivo mouse xenograft models, using the human lung squamous cell carcinoma line EBC-1.
The area under the curve (AUC) of tumour volume over time and BDC was taken and plotted against the corresponding dose group (FIG. 13).

[7] = Kellogg et al (2011), cited from earlier work; for fold reduction in sensitivity to a reducing agent such as dithiothreitol: in the antibody drug conjugate context, compared to the non-hindered disulphide; for Relative Stability to DTT (ADC): values relate to antibody drug conjugates containing the same disulphide linker
[8] = Stability to reducing agent dithiothreitol (DTT); assay type: physicochemical; conditions: Bicycle Drug Conjugates, quantitative LC-MS
Method: as §5

[9] = molecular target: T2, MT1-MMP hemopexin domain (PEX) (Homo sapiens, UniProt P50281); assay: Competition assay using fluorescence polarisation; assay type: binding
T2 construct: residues Cys319-Gly511 from the human gene; His6 (N); made in house; host or cells: HEK293 (transient, pEXPR-IBA42 vector)
Text: as §2, §3
The raw data is fit to the analytical solution of the cubic equation that describes the equilibria between fluorescent tracer, titrant, and binding protein. The fit requires the value of the affinity of fluorescent tracer to the target protein, which can be determined separately by direct binding FP experiments (see previous section).

[10] = human, human plasma, quantitative LC-MS, incubation up to 24 hrs, 4 μM BDC

C[C@H](NC(=O)CN(C)C(=O)CN(C)C(=O)CN(C)C(=O)CN(C)C(=O)CN(C)C(=O)CN(C)C(=O)CN(C)C(=O)CN(C)C(=O)CN(C)C(=O)CN(C)C(=O)CCN)C(=O)N[C@H]1CSCc2cc3cc(c2)CSC[C@H](NC(=O)[C@@H](C)NC(=O)[C@H](Cc2cccc4ccccc24)NC(=O)[C@H](CCC(=O)O)NC(=O)[C@H](CC(N)=O)NC(=O)[C@@H](C)NC1=O)C(=O)N[C@@H](CCC(=O)O)C(=O)N[C@@H](CC(=O)O)C(=O)N[C@@H](Cc1ccccc1)C(=O)N[C@@H](Cc1ccc(O)cc1)C(=O)N[C@@H](CC(=O)O)C(=O)N[C@@H](C(C)(C)C)C(=O)N[C@H](C(N)=O)CSC3 [17-69-07-N241, bAla-Sar10-A-(17-69-07) D-Ala1 1Nal4 D-Ala5 tBuGly11] (H-[βAla][Sar][Sar][Sar][Sar][Sar][Sar][Sar][Sar][Sar][Sar]AC[dA]NE[1Nal][dA]CEDFYD[Tle]C-NH2; linker 13-19-26 via TBMB; C-terminus assumed)
half-life at 4 μM ([1]; mouse plasma): > 36 h
Kd (MT1-MMP hemopexin domain [2]): 1.4 nM
half-life at 4 μM [3, 10]: > 36 h
Kd (MT1-MMP hemopexin domain [4]): 0.63 nM
half-life at 4 μM ([5]; rat plasma (ex vivo)): > 36 h

COc1cc2cc(c1Cl)N(C)C(=O)C[C@H](OC(=O)[C@H](C)N(C)C(=O)CCC(C)(C)SSCCCC(=O)NCCC(=O)N(C)CC(=O)N(C)CC(=O)N(C)CC(=O)N(C)CC(=O)N(C)CC(=O)N(C)CC(=O)N(C)CC(=O)N(C)CC(=O)N(C)CC(=O)N(C)CC(=O)N[C@@H](C)C(=O)N[C@H]1CSCc3cc4cc(c3)CSC[C@H](NC(=O)[C@@H](C)NC(=O)[C@H](Cc3cccc5ccccc35)NC(=O)[C@H](CCC(=O)O)NC(=O)[C@H](CC(N)=O)NC(=O)[C@@H](C)NC1=O)C(=O)N[C@@H](CCC(=O)O)C(=O)N[C@@H](CC(=O)O)C(=O)N[C@@H](Cc1ccccc1)C(=O)N[C@@H](Cc1ccc(O)cc1)C(=O)N[C@@H](CC(=O)O)C(=O)N[C@@H](C(C)(C)C)C(=O)N[C@H](C(N)=O)CSC4)[C@]1(C)O[C@H]1[C@H](C)[C@@H]1C[C@@](O)(NC(=O)O1)[C@H](OC)/C=C/C=C(\C)C2 [BT17BDC-19] ({X1-βAla}-[Sar][Sar][Sar][Sar][Sar][Sar][Sar][Sar][Sar][Sar]AC[dA]NE[1Nal][dA]CEDFYD[Tle]C-NH2; linker 12-18-25 via TBMB)
half-life at 4 μM ([1]; plasma): > 36 h
half-life at 4 μM ([3]; human, plasma, quantitative LC-MS, incubation up to 24 hrs, 4 μM BDC): > 14 h
t1/2 (hrs) (human plasma) ([3]; quantitative LC-MS, incubation up to 24 hrs, 4 μM BDC): 23.5 ± 4.1 h
efficacy in EBC-1 xenograft [6]: efficacious
tolerability / body weight [6]: well tolerated at efficacious doses
ED50, effective dose to achieve 50% tumour AUC reduction [6]: 3.1 ± 1.6^b mg/kg
fold reduction in sensitivity to a reducing agent such as dithiothreitol [7]: 14 fold
Relative Stability to DTT (ADC) [7]: 14
Relative Stability to DTT (BDC) [8]: 30
half-life at 4 μM ([5]; plasma): > 36 h

COc1cc2cc(c1Cl)N(C)C(=O)C[C@H](OC(=O)[C@H](C)N(C)C(=O)CCC(C)SSC(C)CCC(=O)NCCC(=O)N(C)CC(=O)N(C)CC(=O)N(C)CC(=O)N(C)CC(=O)N(C)CC(=O)N(C)CC(=O)N(C)CC(=O)N(C)CC(=O)N(C)CC(=O)N(C)CC(=O)N[C@@H](C)C(=O)N[C@H]1CSCc3cc4cc(c3)CSC[C@H](NC(=O)[C@@H](C)NC(=O)[C@H](Cc3cccc5ccccc35)NC(=O)[C@H](CCC(=O)O)NC(=O)[C@H](CC(N)=O)NC(=O)[C@@H](C)NC1=O)C(=O)N[C@@H](CCC(=O)O)C(=O)N[C@@H](CC(=O)O)C(=O)N[C@@H](Cc1ccccc1)C(=O)N[C@@H](Cc1ccc(O)cc1)C(=O)N[C@@H](CC(=O)O)C(=O)N[C@@H](C(C)(C)C)C(=O)N[C@H](C(N)=O)CSC4)[C@]1(C)O[C@H]1[C@H](C)[C@@H]1C[C@@](O)(NC(=O)O1)[C@H](OC)/C=C/C=C(\C)C2 (stereo partly drawn) [BT17BDC-20] ({X2-βAla}-[Sar][Sar][Sar][Sar][Sar][Sar][Sar][Sar][Sar][Sar]AC[dA]NE[1Nal][dA]CEDFYD[Tle]C-NH2; linker 12-18-25 via TBMB)
half-life at 4 μM ([1]; plasma): > 36 h
efficacy in EBC-1 xenograft [6]: not efficacious
tolerability / body weight [6]: tolerated based on constant weight
ED50, effective dose to achieve 50% tumour AUC reduction [6]: 22 ± 13^b mg/kg
fold reduction in sensitivity to a reducing agent such as dithiothreitol [7]: 170 fold
Relative Stability to DTT (ADC) [7]: 170
Relative Stability to DTT (BDC) [8]: 93
half-life at 4 μM ([5]; plasma): 34 ± 4 h

CC[C@H](C)[C@@H]1NC(=O)[C@H](CC(=O)O)NC(=O)[C@H](Cc2ccc(O)cc2)NC(=O)[C@H](Cc2ccccc2)NC(=O)[C@H](CC(=O)O)NC(=O)[C@H](CCC(=O)O)NC(=O)[C@@H]2CSCc3cc(cc(c3)CSC[C@H](NC(=O)[C@H](C)NC(=O)CN(C)C(=O)CN(C)C(=O)CN(C)C(=O)CN(C)C(=O)CN(C)C(=O)CN(C)C(=O)CN(C)C(=O)CN(C)C(=O)CN(C)C(=O)CN(C)C(=O)CN)C(=O)N[C@@H](Cc3ccc(O)cc3)C(=O)N[C@@H](CC(N)=O)C(=O)N[C@@H](CCC(=O)O)C(=O)N[C@@H](Cc3ccccc3)C(=O)NCC(=O)N2)CSC[C@@H](C(N)=O)NC1=O [17-69-07-N219, G-Sar10-A-(17-69-07)] (H-G[Sar][Sar][Sar][Sar][Sar][Sar][Sar][Sar][Sar][Sar]ACYNEFGCEDFYDIC-NH2; linker 13-19-26 via TBMB; C-terminus assumed)
Kd ([9]; Table 12, molecules selected for plasma stability assessment, read-out: Kd): 0.82 ± 0.09 nM
Kd ([9]; Table 13, Human/cyno MT1-MMP hemopexin domain, FP competition, read-out: Human/cyno (Kd)): 0.82 nM
Kd ([9]; Table 16, FP competition, footnote e: 17-69-07-N004 as tracer, read-out: Kd (nM) (Hemopexin domain)): 0.82 ± 0.09 nM
Kd ([9]; read-out: Kd, affinity to PEX / MT1-MMP): 0.82 nM
half-life at 10 μM ([1]; ex vivo mouse plasma at 37° C., Method #2 (FIG. 1, FIG. 3A), read-out: half-life of the peptide in mouse plasma (converted)): 6 h
half-life at 4 μM ([1]; mouse plasma): 3.9 ± 0.3 h
Kd (MT1-MMP hemopexin domain [2]): 0.9 nM
half-life at 10 μM ([3]; human, human plasma, 37° C., sentence prints mouse plasma, read-out: half-life of the peptide in plasma (FIG. 3B, human plasma stability) (converted)): 6 h
half-life at 4 μM [3, 10]: 30.3 ± 4.7 h
half-life at 4 μM ([5]; rat plasma (ex vivo)): 3.7 h
